Columns and labels:
[1] = tested on: CT26.CL25 colon cancer tumor endothelial cells; test: Colon CT26 ex vivo model of tumor angiogenesis; format: cell-based, mouse
Procedure, shortened: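 Cell death was read by FDA (live, green) and PI (dead, red) fluorescence imaging, e.g. 48 h after treatment. Treatment began once endothelial cells had grown out of Matrigel-embedded CT26 colon tumor fragments, typically after 7 days of culture in endothelial growth medium at 37 °C.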

[2] = tested on: LL/2 lung cancer tumor endothelial cells; test: Lung LL2 ex vivo model of tumor angiogenesis; format: cell-based, mouse; conditions: for 48 hrs (morphology observations): LL/2 tumor endothelial cells; for Cell death: drug treatment for two days, ratio of red area to total endothelial cell area; for cytotoxicity at 40 µM / cytotoxicity at 20 µM: Mus musculus, Endothelial cell, 48 h, read-out: Cell death
Procedure, shortened: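 Live/dead imaging with FDA and PI, taken e.g. 48 h post-drug under fixed channel settings, measures treatment effects on endothelial cells sprouting from Lewis lung tumor explants. Explants were seeded in Matrigel drops and grown ~4 days in endothelial growth medium, 37 °C, 5% CO2, before dosing.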

PLXDC1 = biological target: T1, PLXDC1 (Homo sapiens, UniProt Q8IUK5); test: Gfi1b promotor luciferase receptor activation assay, PLXDC1-expressing cells (FIG. 18A, 19); format: cell-based; conditions: compound treatments 1 day; basal activity defined as 1
T1 construct: expressed in transfected cells
T1 sequence (Q8IUK5 19-500): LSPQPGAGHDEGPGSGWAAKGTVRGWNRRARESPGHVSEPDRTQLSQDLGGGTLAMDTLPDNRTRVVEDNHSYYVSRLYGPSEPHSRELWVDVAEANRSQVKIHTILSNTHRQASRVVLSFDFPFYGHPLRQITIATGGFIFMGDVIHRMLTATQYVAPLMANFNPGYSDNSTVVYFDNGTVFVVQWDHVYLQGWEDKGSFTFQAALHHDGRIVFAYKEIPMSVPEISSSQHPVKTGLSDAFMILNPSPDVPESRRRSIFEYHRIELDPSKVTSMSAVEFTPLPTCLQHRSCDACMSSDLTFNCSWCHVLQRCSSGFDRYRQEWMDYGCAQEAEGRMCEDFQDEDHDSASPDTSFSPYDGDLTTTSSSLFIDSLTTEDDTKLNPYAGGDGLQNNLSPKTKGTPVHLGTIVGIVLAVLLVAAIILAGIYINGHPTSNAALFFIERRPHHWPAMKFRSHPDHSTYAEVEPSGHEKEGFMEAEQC
From the text: FIG. 18A-B show activation of PLXDC1 and PLXDC2 by small molecules. […] All compound treatments were done for 1 day. Basal promotor activity of the PLXDC1-expressing cells is defined as 1.
Basal promotor activity of the PLXDC1-expressing cells is defined as 1. The basal activity of PLXDC1-expressing cells (Control) are higher than cells without PLXDC1, consistent promotor activation by the ectopic expression of the receptor without ligands.
By linking its promotor to a luciferase reporter gene, this example developed a PLXDC1 receptor activation assay.

[3] = Mus musculus, Endothelial cell, 48 h, read-out: Cell death

Row | SMILES | 48 hrs (morphology observations) ([2]; 40 μm) | 48 hrs (morphology observations after 48 hours) ([1]; Conc. 10 μm) | cytotoxicity at 10 µM [1, 3] [%] | 48 hrs (morphology observations) ([2]; 20 μm) | Cell death ([2]; 20 μm) [%] | also measured
1 | CCCCCCCOc1ccc(S(=O)(=O)c2cnc3ccc(SC)cc3c2N2CCCN(C)CC2)cc1 [Compound 218] | **** (100% of endothelial cells vesicularize in cell shape and look flattened in morphology (indicating disintegration of the cell body)) |  |  |  |  | 48 hrs (morphology observations after 48 hours) ([1]; Conc. 40 μm): *** (100% of endothelial cells vesicularize in cell shape); cytotoxicity at 40 µM [1, 3]: 90%; Cell death ([2]; 40 μm): 100%
2 | CCCCCCCOc1ccc(S(=O)(=O)c2cnc3ccc(SC)cc3c2N2CCC(N3CCCCC3)CC2)cc1 [Compound 219] | **** (100% of endothelial cells vesicularize in cell shape and look flattened in morphology (indicating disintegration of the cell body)) |  |  |  |  | 48 hrs (morphology observations after 48 hours) ([1]; Conc. 40 μm): *** (100% of endothelial cells vesicularize in cell shape); cytotoxicity at 40 µM [1, 3]: 90%; Cell death ([2]; 40 μm): 60%
3 | CCCCCCCOc1ccc(S(=O)(=O)c2cnc3ccc([S+](C)[O-])cc3c2N2CCCN(C)CC2)cc1 (stereo not drawn) [Compound 220] | **** (100% of endothelial cells vesicularize in cell shape and look flattened in morphology (indicating disintegration of the cell body)) |  |  |  |  | 48 hrs (morphology observations after 48 hours) ([1]; Conc. 40 μm): **** (100% of endothelial cells vesicularize in cell shape and look flattened in morphology (indicating disintegration of the cell body)); cytotoxicity at 40 µM [1, 3]: 100%; cytotoxicity at 40 µM [2]: 100%
4 | CCCCCCCOc1ccc(S(=O)(=O)c2cnc3ccc([S+](C)[O-])cc3c2N2CCC(N3CCCCC3)CC2)cc1 (stereo not drawn) [Compound 221] | **** (100% of endothelial cells vesicularize in cell shape and look flattened in morphology (indicating disintegration of the cell body)) |  |  |  |  | 48 hrs (morphology observations after 48 hours) ([1]; Conc. 40 μm): **** (100% of endothelial cells vesicularize in cell shape and look flattened in morphology (indicating disintegration of the cell body)); cytotoxicity at 40 µM [1, 3]: 100%; cytotoxicity at 40 µM [2]: 100%
5 | CCCCOc1ccc(S(=O)(=O)c2cnc3ccc([S+](C)[O-])cc3c2N2CCC(N3CCC(O)(c4ccccc4)CC3)CC2)cc1 (stereo not drawn) [Compound 238] | *** (more than 50% but less than 100% of endothelial cells vesicularize in cell shape) | 0 | 10 |  |  | 
6 | CCCCOc1ccc(S(=O)(=O)c2cnc3ccc([S+](C)[O-])cc3c2N2CCC(N3CCCN(C)CC3)CC2)cc1 (stereo not drawn) [Compound 241] |  | 0 | 0 |  |  | Cell death ([2]; 40 μm): 40%
7 | CCCCCCCOc1ccc(S(=O)(=O)c2cnc3ccc([S+](C)[O-])cc3c2N2CCC(N3CCN(C)CC3)CC2)cc1 (stereo not drawn) [Compound 253] |  | *** (100% of endothelial cells vesicularize in cell shape) | 80 | **** (100% of endothelial cells vesicularize in cell shape and look flattened in morphology (indicating disintegration of the cell body)) | 100 | 
8 | CCCCCCCOc1ccc(S(=O)(=O)c2cnc3ccc([S+](C)[O-])cc3c2N2CCC(N3CCCC(O)C3)CC2)cc1 (stereo not drawn) [Compound 254] |  | ** (more than 50% but less than 100% of endothelial cells vesicularize in cell shape) | 40 | *** (more than 50% but less than 100% of endothelial cells vesicularize in cell shape) | 100 | 
9 | CCCCCCCOc1ccc(S(=O)(=O)c2cnc3ccc([S+](C)[O-])cc3c2N2CCCN(CCN3CCCCC3)CC2)cc1 (stereo not drawn) [Compound 255] |  | 0 | 0 | * (50% or less of cells vesicularize in cell shape) | 10 | 
10 | CCCCCCCOc1ccc(S(=O)(=O)c2cnc3ccc([S+](C)[O-])cc3c2N2CCC(N3CCCN(C)CC3)CC2)cc1 (stereo not drawn) [Compound 256] |  | *** (100% of endothelial cells vesicularize in cell shape) | 90 | **** (100% of endothelial cells vesicularize in cell shape and look flattened in morphology (indicating disintegration of the cell body)) | 100 | 
11 | CCCCCCCOc1ccc(S(=O)(=O)c2cnc3ccc([S+](C)[O-])cc3c2N2CCC(N3CCN(CCO)CC3)CC2)cc1 (stereo not drawn) [Compound 257] |  | **** (100% of endothelial cells vesicularize in cell shape and look flattened in morphology (indicating disintegration of the cell body)) | 100 | **** (100% of endothelial cells vesicularize in cell shape and look flattened in morphology (indicating disintegration of the cell body)) |  | cytotoxicity at 20 µM [2]: 100%
12 | CCCCCCCOc1ccc(S(=O)(=O)c2cnc3ccc([S+](C)[O-])cc3c2N2CCC(N3CCC(N4CCCCC4)CC3)CC2)cc1 (stereo not drawn) [Compound 258] |  | *** (100% of endothelial cells vesicularize in cell shape) | 100 | **** (100% of endothelial cells vesicularize in cell shape and look flattened in morphology (indicating disintegration of the cell body)) |  | cytotoxicity at 20 µM [2]: 100%
13 | CCCCCCCOc1ccc(S(=O)(=O)c2cnc3ccc([S+](C)[O-])cc3c2N2CCN(C)CC2)cc1 (stereo not drawn) [Compound 259] |  |  |  | *** (more than 50% but less than 100% of endothelial cells vesicularize in cell shape) | 95 | 48 hrs (morphology observations after 48 hours) ([1]; Conc. 20 μm): *** (100% of endothelial cells vesicularize in cell shape); cytotoxicity at 20 µM [1, 3]: 100%
14 | O=c1[nH]cc(F)c(=O)[nH]1 [Fluorouracil, 5-fluorouracil, reference compound] |  |  |  |  |  | Gfi1b promotor activity in PLXDC1-expressing cells (PLXDC1): does not activate this promoter

Source: patent US20250230226A1, “PLXDC1/PLXDC2 ACTIVATORS AND THEIR USE IN THE TREATMENT OF BLOOD VESSEL DISORDERS” (THE REGENTS OF THE UNIVERSITY OF CALIFORNIA, priority 2019, published 2025)
